The test system of the assay is CEM cells HIV-1 protection, formazan growth assay. Nature of the assay: NCI AIDS Antiviral Assay. To be noted: for IC50: measured here: growth of uninfected CEM cells. The method, boiled down: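 CEM (human) cells, HIV-1 infected vs uninfected, 5-point dosing, formazan growth read-out. Retest threshold 50% protection.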

Structures are written as SMILES. Where “and” joins values, the source holds several entries; their conditions need not be identical. Equal entries are not always repeated. Calls of active or inactive are those of the source.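 Rule for the calls: active = compounds giving half or more protection of infected cells from virus-caused growth loss, again on retest; inactive = the rest.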

Consider `COc1cc(C(=O)Oc2c(C(C)=O)sc3c2c(=O)n(-c2ccccc2)c(=S)n3-c2ccccc2)cc(OC)c1OC`, for which the EC50 (in general, the concentration at which the effect is half-maximal) was greater than 200 µM and the IC50 (usually the concentration needed to halve the response being measured) was found to be 1.1 µM.
On to `O=c1[nH]oc(NS(=O)(=O)c2ccccc2)c1C1CCCCC1`, for which the EC50 is greater than 200 µM and the IC50 is 97.7 µM.
Turning to `CC(=O)N1N=C(C)C2ON=C(c3ccc(Cl)cc3)P21` (stereo not given), the result was inactive.
For `O=c1c2ccccc2n2nnc3cccc1c32`, the EC50 is greater than 23.4 µM and the concentration for half-maximal inhibition (IC50) was greater than 23.4 µM.
Turning to `S=c1sc(-c2ccc(Cl)cc2)nn1CSc1nc2ccccc2[nH]1`, the EC50 was greater than 200 µM and the IC50 turned out to be 31.6 µM.
With `Clc1cc(Cl)cc(C2ON=C(c3ccccc3)N2C23CC4CC(CC(C4)C2)C3)c1` (stereo not given), the EC50 is greater than 200 µM and the half-maximal inhibitory concentration (IC50) is greater than 200 µM.
`C=CC(C)(C)c1[nH]cnc1/C=C1\NC(=O)[C@H](C(C)C)NC1=O`: the EC50 is greater than 200 µM and the concentration for half-maximal inhibition (IC50) was 2.4 µM.
Take `CCOC(=O)c1c(N2CCCC2)ncn(C)c1=S`: the EC50 was greater than 200 µM and the IC50 is greater than 200 µM.
Regarding `C=CCCC(O)c1cc(C)c(O)c(C)c1` (stereo not given), the EC50 is greater than 457 µM and the IC50 amounted to 229 µM.
`Cc1cc2oc(=N)c(C#N)c(C)c2cc1C`: the EC50 was greater than 200 µM and the 50% inhibitory concentration (IC50) amounted to 43.7 µM.
With `Cc1cc(=O)c2ccc3c(ccc4c(=O)cc(C)[nH]c43)c2[nH]1`, the EC50 was greater than 200 µM and the 50% inhibitory concentration (IC50) was determined as 11.5 µM.
Consider `Nc1ccc(N=Nc2ccc(/C=C/c3ccc(N=Nc4ccc(N)c5ccccc45)cc3S(=O)(=O)O)c(S(=O)(=O)O)c2)c2ccccc12`, for which the EC50 is greater than 50.1 µM and the half-maximal inhibitory concentration (IC50) stood at 37.2 µM.
As for `Cn1c(=O)c2c(nc(NCCCCl)n2CC(=O)NCCCCl)n(C)c1=O`, the EC50 was greater than 200 µM and the concentration for half-maximal inhibition (IC50) was greater than 200 µM.
Take `CC1(C)O[C@@H]2C[C@H]3[C@@H]4C[C@H](F)C5=CC(=O)C=C[C@]5(C)[C@@]4(F)[C@@H](O)C[C@]3(C)[C@]2(C(=O)CO)O1`: the EC50 is greater than 2 µM and the IC50 came to 0.00741 µM.
`O=C1C=CC(=O)C(CNc2ccc(C(=O)OC34CC5CC(CC(C5)C3)C4)cc2)=C1`: the EC50 was greater than 200 µM and the half-inhibitory concentration (IC50) is 10.5 µM.
As for `CCC1OC2C(CC=C(C)C)=C3OC(C)(O)C(C)(CC)C(O)C3=C3OC(=O)C=C1C32` (stereo not given), the EC50 was greater than 200 µM and the IC50 was 30.9 µM.
For `CCOC(=O)/C(=C(/N)C1OC(COC(c2ccccc2)(c2ccccc2)c2ccccc2)C2OC(C)(C)OC12)C1CC(=O)N(C)C1=O` (stereo not given), the EC50 was greater than 200 µM and the half-inhibitory concentration (IC50) worked out at 11.7 µM.
With `N#CC(/C(CCC(=O)Nc1ccc(Cl)cc1)=N/NC(=O)c1cc2ccccc2cc1O)c1ccccc1` (stereo not given), the EC50 was greater than 51.3 µM and the IC50 was determined as 12.6 µM.
In the case of `N#Cc1cccc(C2SCc3nc4ccccc4n32)c1` (stereo not given), the concentration for a half-maximal effect (EC50) was 19.5 µM and the IC50 was found to be 60.3 µM.
The corresponding values for `CCOP(=O)(OCC)c1cc2cc(O)ccc2oc1=O` are greater than 200 µM and greater than 200 µM.
The matching figures for `O=C1c2cccc3cccc(c23)C(=O)N1C(Cc1ccccc1)c1ccccc1` (stereo not given): greater than 200 µM and greater than 200 µM.
As for `COC(=O)c1nc(NC#N)[nH]c(=O)c1C`, the EC50 is greater than 34.7 µM and the IC50 is greater than 34.7 µM.
Regarding `Cc1oc(N)c(S(=O)(=O)c2cc3ccccc3n(O)c2=N)c1C`, the EC50 is greater than 200 µM and the concentration for half-maximal inhibition (IC50) was determined as 95.5 µM.
In the case of `COC1OC(COC(=O)c2ccccc2)C(OC(=O)c2ccccc2)C1NC(C)=O` (stereo not given), the EC50 is greater than 200 µM and the IC50 was greater than 200 µM.
As to `COc1ccc2oc(C(=O)O)c3c2c1CCC3CCC(=O)O` (stereo not given), the result was inactive.
`COc1c2occc2c(Cl)c2ccc(=O)oc12`: the EC50 was greater than 70.8 µM and the IC50 stood at 43.7 µM.
As for `S=c1sc2sc(=S)sc2s1`, the result was inactive.
On to `O=C(O)CN(CC(=O)O)C(C(=O)O)c1ccccc1` (stereo not given), for which the EC50 was greater than 200 µM and the IC50 is greater than 200 µM.
In the case of `C=C(C)[C@@H]1CC[C@]2(CNC(=O)CC(C)(C)CC(=O)O)CC[C@]3(C)[C@H](CC[C@@H]4[C@@]5(C)CC[C@H](NC(=O)CC(C)(C)CC(=O)O)C(C)(C)[C@@H]5CC[C@]43C)[C@@H]12`, the EC50 is greater than 200 µM and the half-inhibitory concentration (IC50) is 18.2 µM.
With `Brc1cc2c(cc1Br)CN(c1ccccc1)C2`, the outcome was inactive.
As to `O=P(CP(=O)(c1ccccc1)c1ccccc1)(c1ccccc1)c1ccccc1.[CH3][Sn]([CH3])([Cl])[Cl]`, the outcome was inactive.
Regarding `CC(=O)OC[C@H]1OC(=O)C2O[C@H](c3ccccc3)OC21` (stereo not given in full), the EC50 is greater than 200 µM and the IC50 is greater than 200 µM.
`CCCNC(=O)N(CC)S(=O)(=O)c1ccc(Cl)cc1`: the outcome was inactive.
Regarding `CS(=O)(=O)OCCC(=O)N1CCN(C(=O)CCOS(C)(=O)=O)CC1`, the EC50 was greater than 200 µM and the IC50 stood at 35.5 µM.
For `Cc1cc2c(cc1Cl)SC(NN(C)C)=NS2(=O)=O`, the EC50 is greater than 200 µM and the half-inhibitory concentration (IC50) was found to be 117 µM.
The matching figures for `CC(C)C(OC(=O)c1ccc(NCC2=CC(=O)C=CC2=O)cc1)C(C)C`: greater than 20 µM and 9.12 µM.
For the compound `CC1(C)C(=NNC(=S)NN)C(C)(C)C1=NNC(=S)NN`, the EC50 was greater than 794 µM and the IC50 was determined as 151 µM.
`CCOCNC=O`: the EC50 is greater than 2400 µM and the IC50 was 1480 µM.
The matching figures for `CC(=O)OCC(OC(C)=O)C(OC(C)=O)C(Cn1c(=O)cc(C)c2ccc(C)c(C)c21)OC(C)=O` (stereo not given): greater than 200 µM and greater than 200 µM.
As for `C=C(Br)CN(C(C)=O)C1CCCCC1`, the EC50 is greater than 200 µM and the concentration for half-maximal inhibition (IC50) is greater than 200 µM.
Regarding `c1csc(-c2cc(-c3cccs3)c(-c3ccsc3)s2)c1`, the EC50 was greater than 200 µM and the 50% inhibitory concentration (IC50) came out at 33.1 µM.
In the case of `CCCCCCCCCCCCN1C=C(C(N)=O)C(S(=O)(=O)O)c2ccccc21` (stereo not given), the EC50 is 6.61 µM and the IC50 worked out at 25.1 µM.
Consider `NC1=NS(=O)(=O)Nc2nc(-c3ccc(Cl)cc3)c(-c3ccc(Cl)cc3)nc21`, for which the EC50 was greater than 61.7 µM and the IC50 is greater than 61.7 µM.
With `COc1ccc(Nc2cnc3cc(N)ccc3n2)cc1OC`, the EC50 was greater than 603 µM and the IC50 came out at 42.7 µM.
For the compound `C=C[C@H]1C=Cc2c(OC)cccc2[C@@H]1COP1(=S)NC(C)C(c2ccccc2)O1` (stereo not given in full), the outcome was inactive.
Turning to `CC1NC(=O)c2cc(=O)[nH]c(O)c21` (stereo not given), the EC50 is greater than 513 µM and the concentration for half-maximal inhibition (IC50) was 398 µM.
As for `CN1C/C(=C\c2cccs2)C(=O)/C(=C/c2cccs2)C1`, the EC50 is greater than 200 µM and the IC50 worked out at 14.1 µM.
With `COC(=O)C1Cc2c([nH]c3ccccc23)C=N1` (stereo not given), the outcome was inactive.
With `CCOP(=O)(CCCC(O)CNc1nc(N)nc(Cl)c1N=Nc1ccc(Cl)cc1)OCC` (stereo not given), the EC50 was greater than 200 µM and the IC50 is 5.75 µM.
Regarding `COc1ccc(C2=Nc3ccccc3SC(C)C2)cc1` (stereo not given), the EC50 is greater than 13.2 µM and the half-inhibitory concentration (IC50) was greater than 13.2 µM.
With `Clc1cc2nncc(N3CC3)c2cc1Cl`, the outcome was inactive.
For `CCCCCOC(=S)SSSC(=S)OCCCCC`, the EC50 is greater than 200 µM and the half-inhibitory concentration (IC50) came out at 7.76 µM.
The matching figures for `Nc1ncnc2c(C3OC(CO)C(O)C3O)c[nH]c12` (stereo not given): greater than 832 µM and 0.263 µM.
For `CN(C)c1c(-c2ccccc2)cc(-c2ccccc2)[nH]c1=O`, the EC50 is greater than 64.6 µM and the IC50 is greater than 64.6 µM.
As to `C#CCOCC12C=CC(O1)C1C(=O)N(C)C(=O)C12` (stereo not given), the EC50 is greater than 200 µM; the half-inhibitory concentration (IC50) was 74.1 µM and 182 µM.
As to `CSSC(SC)SC`, the EC50 was greater than 200 µM and the half-maximal inhibitory concentration (IC50) was determined as 33.1 µM.
On to `COc1ccc(Cl)cc1NC(=O)Nc1cc(C)ccn1`, for which the EC50 was greater than 200 µM and the IC50 is greater than 200 µM.
For the compound `O=C1CSC(=S)N1c1ccc2c(c1)OCO2`, the EC50 was greater than 200 µM and the IC50 was 79.4 µM.
As for `S=C(c1c[nH]c2ccccc12)N1CCN(c2ccccc2)CC1`, the EC50 is greater than 200 µM and the IC50 was found to be 158 µM.
As for `COC(=O)C1CCC(=O)N1C(c1ccc2c(c1)OCO2)c1ccc2c(c1)OCO2` (stereo not given), the EC50 is greater than 200 µM and the IC50 was 148 µM.
For the compound `O=C1Cc2c([nH]c3ccc(Cl)cc23)-c2ccccc2N1`, the EC50 is greater than 200 µM and the IC50 was 17.4 µM.
For the compound `CNc1cc(OCc2ccccc2)c(OC)cc1C(=O)N1CCC[C@H]1CO`, the EC50 was greater than 200 µM and the 50% inhibitory concentration (IC50) worked out at 42.7 µM.
Consider `CCCCC[C@@H]1CCCC2C1CC[C@@H](CC/C=C/C(=O)OC)N2C(=O)OC(C)C(Cl)(Cl)Cl` (stereo not given in full), for which the outcome was inactive.
On to `CCN(CC)CCCC(C)Nc1cc(/C=C/c2ccc(Cl)cc2)nc2cc(N(C)C)ccc12` (stereo not given), for which the EC50 is greater than 145 µM and the IC50 was determined as 0.871 µM.
Turning to `Nc1nc(SCCc2ccccc2)nc2nc3c(c(-c4ccccc4)c12)CCCC3`, the EC50 is greater than 200 µM and the IC50 is greater than 200 µM.
With `O=C1[C@@H]2C(c3ccccc3F)=NO[C@@H]2C(=O)N1c1ccc(Cc2ccc(N3C(=O)[C@H]4C(c5ccccc5F)=NO[C@H]4C3=O)cc2)cc1`, the EC50 is greater than 8.32 µM and the IC50 was greater than 8.32 µM.
`O=c1ssc2ncccc12`: the EC50 is greater than 295 µM and the concentration for half-maximal inhibition (IC50) is greater than 100 µM.
Take `COc1ccc(/C=C2\c3cc(OC)c(OC)cc3CCN2C(=O)c2ccccc2)cc1OC`: the EC50 was greater than 200 µM and the IC50 was 57.5 µM.
In the case of `Cc1ccc(-c2sc(-c3ccc(C)cc3)c3c2C2CCC3C2)cc1`, the EC50 was greater than 200 µM and the IC50 was greater than 200 µM.
Consider `O=C(Nc1ccc(Cl)c(Cl)c1)O/N=C\c1c(Cl)ccc([N+](=O)[O-])c1Cl`, for which the result was inactive.
Consider `CC(Sc1ccccc1)C(=O)N1CCCC1` (stereo not given), for which the EC50 is greater than 100 µM and the IC50 is greater than 100 µM.
`CCCCCCCCCCCCCC(=O)OCC1OC(OC)C(NC(=O)N(CCCl)N=O)C(O)C1O` (stereo not given): the EC50 was greater than 18.6 µM and the half-inhibitory concentration (IC50) worked out at 12 µM.
The corresponding values for `C/C(CC(=O)Nc1cccc([N+](=O)[O-])c1)=N\NC(=O)C[n+]1ccccc1` are greater than 631 µM and 240 µM.

These data come from PubChem BioAssay AID179 (DTP/NCI, 2004).
